Columns and labels:
[1] = Cell viability (CellTiter-Glo), 6-day compound treatment; format: cell-based, Human; conditions: human, HFF cells, 6 d, read-out: Cell viability at max. concentration
Experimental: (§1) The compound 18a was tested in 16 different cell lines. For 6-day compound treatment 1700 cells per well were plated in a 384-well plate (Corning #781098) and incubated overnight at 37° C./5% CO2. The following day, compounds in 10-fold dilutions were added to the plates and the plates were incubated for 6 days. Afterwards, 20 μL CellTiter-Glo reagent (Promega, #G7570) was added to each well outside of the incubator and the plates were read for luminescence on a Spark® multimode microplate reader (Tecan). Data was fit in GraphPad Prism 8 to a nonlinear regression curve to determine the IC50 of the compounds.

BT549 = experiment: as above; format: cell-based, Human
Experimental: as §1

BxPC3 = experiment: as above; format: cell-based, Human
Experimental: as §1

HFF = experiment: as above; format: cell-based, Human; conditions: Homo sapiens, 144 h, read-out: IC50 6 d
Experimental: as §1

HL-60 = experiment: as above; format: cell-based, Human
Experimental: as §1

MALME 3M = experiment: as above; format: cell-based, Human
Experimental: as §1

MDA-MB-231 = experiment: as above; format: cell-based, Human
Experimental: as §1

MDA-MB-468 = experiment: as above; format: cell-based, Human
Experimental: as §1

MiaPaCa2 = experiment: as above; format: cell-based, Human
Experimental: as §1

NCI-H510A = experiment: as above; format: cell-based, Human
Experimental: as §1

PANC1 = experiment: as above; format: cell-based, Human
Experimental: as §1

SW-1271 = experiment: as above; format: cell-based, Human
Experimental: as §1

SKOV-3 = experiment: Cell viability (CellTiter-Glo), 48 hrs; format: cell-based; conditions: Homo sapiens, SK-OV-3, 48 h, read-out: SKOV-3 Viability 48 h IC50
BIR3 domain of XIAP = BIR3 domain of XIAP (Homo sapiens, UniProt P98170); experiment: Fluorescence polarization assay; format: binding; conditions: SMAC-FITC probe, Ki calculated from IC50
BIR3 domain of XIAP, sequence (P98170 241-356 limits assumed): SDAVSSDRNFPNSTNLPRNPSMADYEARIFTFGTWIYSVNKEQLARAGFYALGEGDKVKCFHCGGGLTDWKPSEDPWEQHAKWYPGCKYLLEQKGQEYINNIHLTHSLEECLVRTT
Outline: (§2)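 Competitive FP with 50 nM SMAC-FITC probe in 100 mM KH2PO4 pH 7.5, 50 μM ZnSO4, 1 mM TCEP; cIAP1 and XIAP at 800 nM, cIAP2 and ML-IAP at 1.5 μM. Compounds 30 μM to 1.5 nM in 3-fold steps; ex 485/em 535 nm. IC50 by nonlinear fit, converted to Ki via Nikolovska-Coleska equation.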

BIR3 domain of cIAP1 = BIR3 domain of cIAP1 (Homo sapiens, UniProt Q13490); experiment: Fluorescence polarization assay; format: binding; conditions: SMAC-FITC probe, Ki calculated from IC50
BIR3 domain of cIAP1, sequence (Q13490 253-363 limits assumed): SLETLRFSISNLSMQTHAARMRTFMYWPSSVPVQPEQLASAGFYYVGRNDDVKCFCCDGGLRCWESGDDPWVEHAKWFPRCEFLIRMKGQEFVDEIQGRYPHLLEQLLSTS
Outline: as §2

BIR3 domain of cIAP2 = BIR3 domain of cIAP2 (Homo sapiens, UniProt Q13489); experiment: Fluorescence polarization assay; format: binding; conditions: SMAC-FITC probe, Ki calculated from IC50
BIR3 domain of cIAP2, sequence (Q13489 238-349 limits assumed): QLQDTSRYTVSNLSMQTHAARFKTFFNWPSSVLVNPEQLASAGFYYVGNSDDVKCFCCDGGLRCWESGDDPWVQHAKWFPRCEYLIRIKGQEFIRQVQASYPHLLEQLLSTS
Outline: as §2

ML-IAP = molecular target: T1, ML-IAP (Homo sapiens, UniProt Q96CA5); experiment: Fluorescence polarization assay; format: binding; conditions: SMAC-FITC probe, Ki calculated from IC50
T1 sequence (Q96CA5 1-298): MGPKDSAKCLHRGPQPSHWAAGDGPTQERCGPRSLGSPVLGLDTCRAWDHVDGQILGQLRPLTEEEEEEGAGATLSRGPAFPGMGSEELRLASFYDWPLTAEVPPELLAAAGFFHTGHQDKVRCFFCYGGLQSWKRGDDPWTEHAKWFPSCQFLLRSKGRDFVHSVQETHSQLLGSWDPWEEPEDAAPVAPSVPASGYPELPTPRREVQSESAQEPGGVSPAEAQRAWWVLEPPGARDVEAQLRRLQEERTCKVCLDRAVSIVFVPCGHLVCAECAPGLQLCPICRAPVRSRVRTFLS
Outline: as §2

[2] = test system: latently infected cell line Jurkat 2D10; experiment: HIV Jurkat 2D10 cells GFP+ assay (reversal of HIV latency); format: cell-based
Outline: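 Jurkat 2D10 cells exposed to graded doses of test compounds or IAP antagonists (BV-6, SM-164, Birinapant, LCL-161, GDC-0152, AT-406) for 48 hours. GFP expression quantified by flow cytometry. Induction expressed relative to baseline GFP in untreated cells.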

Which results are given for CN[C@@H](C)C(=O)N[C@H]1CCS[C@H]2CC(C)(C)[C@@H](C(=O)N[C@H]3c4ccccc4C[C@H]3OCC#CC#CCO[C@@H]3Cc4ccccc4[C@@H]3NC(=O)[C@H]3N4C(=O)[C@@H](NC(=O)[C@H](C)NC)CCS[C@H]4CC3(C)C)N2C1=O [Compound 18a, (2S)-1-{[(4S,7S,9aS)-74{(1S,2R)-2-[(6-{[(1S,2R)-1-({[(4S,7S,9aS)-8,8-Dimethyl-4-{[(2S)-2-(methylammonio)propanoyl]amino}-5-oxooctahydropyrrolo[2,1-b][1,3]thiazepin-7-yl]carbonyl}amino)-2,3-dihydro-1H-inden-2-yl]oxy}hexa-2,4-diyn-1-yl)oxy]-2,3-dihydro-1H-inden-1-yl}carbamoyl)-8,8-dimethyl-5-oxooctahydropyrrolo[2,1-b][1,3]thiazepinyl]amino}-N-methyl-1-oxopropan-2-ammonium dichloride]?
viability at 6 d [1]: < 100%; Cell viability at max. concentration (BT549; BT549, 6 d): I (I<10%); IC50 (BT549; Homo sapiens, BT-549, 144 h, read-out: IC50 6 d): 0.01 to 0.1 µM; Cell viability at max. concentration (BxPC3; BxPC3, 6 d): III (50%<III<100%); IC50 (BxPC3; Homo sapiens, BXPC-3, 144 h, read-out: IC50 6 d): 1 to 10 µM; IC50 (HFF): < 100 µM; Cell viability at max. concentration (HL-60; HL-60, 6 d): I (I<10%); IC50 (HL-60; Homo sapiens, HL-60, 144 h, read-out: IC50 6 d): 0.01 to 0.1 µM; IC50 (MALME 3M; Homo sapiens, Malme-3M, 144 h, read-out: IC50 6 d): 0.01 to 0.1 µM; Cell viability at max. concentration (MALME 3M; MALME 3M, 6 d): I (I<10%); IC50 (MDA-MB-231; Homo sapiens, MDA-MB-231, 144 h, read-out: IC50 6 d): 0.1 to 1 µM; Cell viability at max. concentration (MDA-MB-231; MDA-MB-231, 6 d): I (I<10%); IC50 (MDA-MB-468; Homo sapiens, MDA-MB-468, 144 h, read-out: IC50 6 d): 0.1 to 1 µM; Cell viability at max. concentration (MDA-MB-468; MDA-MB-468, 6 d): I (I<10%); IC50 (MiaPaCa2; Homo sapiens, MIA PaCa-2, 144 h, read-out: IC50 6 d): 1 to 10 µM; Cell viability at max. concentration (MiaPaCa2; MiaPaCa2, 6 d): I (I<10%); Cell viability at max. concentration (NCI-H510A; 6 d): IV (IV<100%); IC50 (NCI-H510A; Homo sapiens, 144 h, read-out: IC50 6 d): < 100 µM; IC50 (PANC1; Homo sapiens, PANC-1, 144 h, read-out: IC50 6 d): < 100 µM; Cell viability at max. concentration (PANC1; PANC1, 6 d): IV (IV<100%); IC50 (SW-1271; Homo sapiens, SW1271, 144 h, read-out: IC50 6 d): 0.1 to 1 µM; Cell viability at max. concentration (SW-1271; SW-1271, 6 d): I (I<10%); IC50 (SKOV-3): < 0.01 µM; Ki (BIR3 domain of XIAP): ≤ 0.05 µM; Ki (BIR3 domain of cIAP1): ≤ 0.05 µM; Ki (BIR3 domain of cIAP2): 0.05 to 0.1 µM; Ki (ML-IAP): 0.05 to 0.1 µM; EC50 ([2]; Homo sapiens, Jurkat, 48 h, read-out: Jurkat 2D10 GFP+ EC50): 0.001 to 0.01 µM; efficacy in activating the latently infected cell line ([2]; Jurkat 2D10, 48 hours, compared with BV-6, SM-164, Birinapant, LCL-161, GDC-0152, AT-406 (FIG. 1)): higher efficacy in activating the latently infected cell line than many known compounds
